Reference: the supplement of paper PMC13380429

Columns and labels:
Conditions in all cases: 72 h
[1] = test system: Caco-2; experiment: cell viability relative to DMSO; higher = less toxic
[2] = test system: Calu-3; experiment: as above
[3] = test system: HepG2; experiment: as above
[4] = test system: U2OS; experiment: as above
[5] = test system: Caco-2; experiment: relative viability EC50 (midpoint between 100% and the lowest measured viability); higher = less toxic
[6] = test system: Calu-3; experiment: as above
[7] = test system: HepG2; experiment: as above
[8] = test system: U2OS; experiment: as above
[9] = test system: Caco-2; experiment: drug sensitivity score (DSS) for viability; higher = more toxic; extreme values may be limits of the assay
[10] = test system: Calu-3; experiment: as above
[11] = test system: HepG2; experiment: as above
[12] = test system: U2OS; experiment: as above
[13] = test system: Vero E6; experiment: cell viability relative to DMSO; higher = less toxic
[14] = test system: Vero E6; experiment: relative viability EC50 (midpoint between 100% and the lowest measured viability); higher = less toxic
[15] = test system: Vero E6; experiment: drug sensitivity score (DSS) for viability; higher = more toxic; extreme values may be limits of the assay

Row | SMILES | cell viability ([1]; 1 nM) | cell viability ([1]; 10 nM) | cell viability ([1]; 100 nM) | cell viability ([1]; 1000 nM) | cell viability ([1]; 10000 nM) | cell viability ([2]; 1 nM) | cell viability ([2]; 10 nM) | cell viability ([2]; 100 nM) | cell viability ([2]; 1000 nM) | cell viability ([2]; 10000 nM) | cell viability ([3]; 1 nM) | cell viability ([3]; 10 nM) | cell viability ([3]; 100 nM) | cell viability ([3]; 1000 nM) | cell viability ([3]; 10000 nM) | cell viability ([4]; 1 nM) | cell viability ([4]; 10 nM) | cell viability ([4]; 100 nM) | cell viability ([4]; 1000 nM) | cell viability ([4]; 10000 nM) | relative viability EC50 [5] | relative viability EC50 [6] | relative viability EC50 [7] | relative viability EC50 [8] | drug sensitivity score [9] | drug sensitivity score [10] | drug sensitivity score [11] | drug sensitivity score [12] | cell viability ([13]; 1 nM) | cell viability ([13]; 10 nM) | cell viability ([13]; 100 nM) | cell viability ([13]; 1000 nM) | cell viability ([13]; 10000 nM) | relative viability EC50 [14] | drug sensitivity score [15]
1 | O=C(O)c1ccc2nc(-c3cc(Cl)cc(Cl)c3)oc2c1 [tafamidis-meglumine] | 103% | 88% | 102% | 90.2% | 103% | 97.6% | 95.8% | 94.7% | 93.1% | 99.2% | 103% | 102% | 99.5% | 99.6% | 96% | 100% | 101% | 101% | 97.6% | 100% | > 10 µM | > 10 µM | > 10 µM | > 10 µM | 0 | 0 | 0 | 0 |  |  |  |  |  |  | 
2 | CN1CCC(Nc2ncc3ncnc(Nc4ccc(F)c(Cl)c4)c3n2)CC1 [BIBX-1382] | 99% | 104% | 85.4% | 81.4% | 63.3% | 101% | 115% | 95.8% | 70.2% | 27.4% | 102% | 93.6% | 98.8% | 95.8% | 68.3% | 99.4% | 104% | 95.9% | 98.9% | 83.8% |  | 1.21 µM |  | > 10 µM | 4.4 | 7.6 | 2.1 | 0.4 | 104% | 104% | 90.1% | 61.7% | 36.2% | 0.634 µM | 8.4
3 | CCn1cc(-c2ccnc3[nH]c(-c4cccc(CN(C)C)c4)cc23)c(-c2ccc(NC(=O)N(C)C)cc2)n1 | 96.3% | 95.7% | 98% | 93.1% | 56.2% | 97.8% | 110% | 81.9% | 97.7% | 81.9% | 106% | 105% | 77.8% | 72.3% | 20.1% |  |  |  |  |  |  | > 10 µM | 1.19 µM |  | 3.4 | 0.6 | 8.1 |  | 103% | 104% | 98.5% | 82% | 63.5% |  | 3.8
4 | Cc1cccc(C)c1NC(=O)[C@@H](C)N [tocainide] | 96.8% | 95.8% | 97.5% | 101% | 95.5% | 105% | 92.3% | 90% | 108% | 103% | 107% | 102% | 91.5% | 94.2% | 95.3% | 100% | 102% | 99.2% | 104% | 98.5% | > 10 µM | > 10 µM | > 10 µM | > 10 µM | 0 | 0 | 0 | 0 |  |  |  |  |  |  | 
5 | CCCCCCCCCCCCCCCc1cccc(OCC(=O)NCCO)c1 [PDP-EA] | 105% | 109% | 98.2% | 109% | 109% | 102% | 87.2% | 94.9% | 91.5% | 91.7% | 102% | 113% | 95.6% | 115% | 103% |  |  |  |  |  | > 10 µM | > 10 µM | > 10 µM |  | 0 | 0 | 0 |  |  |  |  |  |  |  | 
6 | C[C@H](NC(=O)[C@@H](Cc1c[nH]c2ccccc12)NC(=O)[C@@H](N)Cc1c[nH]cn1)C(=O)N[C@@H](Cc1c[nH]c2ccccc12)C(=O)N[C@H](Cc1ccccc1)C(=O)N[C@@H](CCCCN)C(N)=O | 92% | 97% | 98.7% | 99.6% | 110% | 94.6% | 109% | 107% | 107% | 99.1% |  |  |  |  |  |  |  |  |  |  | > 10 µM | > 10 µM |  |  | 0 | 0 |  |  | 108% | 100% | 99.1% | 100% | 102% | > 10 µM | 0
7 | O[C@H]1CC[C@H](Nc2ncc3nc(Nc4c(F)cc(F)cc4F)n([C@H]4CCOC4)c3n2)CC1 [CC-930] | 99.1% | 102% | 102% | 96.7% | 86.1% | 101% | 100% | 104% | 87.5% | 81.7% | 104% | 102% | 93.5% | 97.1% | 89.6% | 97.3% | 104% | 95% | 96.7% | 91.1% | > 10 µM | > 10 µM | > 10 µM | > 10 µM | 0.4 | 1.6 | 0 | 0 | 98.5% | 97% | 98.3% | 93.7% | 73.4% |  | 2
8 | O=C(O)CCC(=O)Nc1ccc(S(=O)(=O)Nc2nccs2)cc1 [succinylsulfathiazole] | 93.9% | 100% | 89.6% | 104% | 102% | 94% | 96.2% | 96.1% | 112% | 108% |  |  |  |  |  | 95.3% | 100% | 95.7% | 99.9% | 104% | > 10 µM | > 10 µM |  | > 10 µM | 0 | 0 |  | 0 | 97.8% | 97.3% | 98.7% | 92.1% | 112% | > 10 µM | 0
